Columns and labels:
[1] = test system: fasted, male, lean Sprague-Dawley rats; test: In vivo hypoglycemic effect in fasted rats; design: species or system rat; details: for Max. hypoglycemic effect (percent) 1 hour: 1 hour after subcutaneous administration; for Max. hypoglycemic effect (percent) 1 hour / Max. hypoglycemic effect (percent) 2 hours: percent change from zero time corrected for control group; for Max. hypoglycemic effect (percent) 1 hour / Max. hypoglycemic effect (percent) 2 hours / ED50 1 hour / ED50 2 hours: mean ± S.E.M.; for Max. hypoglycemic effect (percent) 2 hours: 2 hours after subcutaneous administration; for ED50 1 hour: half the maximal hypoglycemic activity 1 hour after subcutaneous administration; for ED50 2 hours: half the maximal hypoglycemic activity 2 hours after subcutaneous administration
Description: The data presented in Table III were obtained in tests carried out in fasted, male, lean Sprague-Dawley rats (Charles River Laboratories).
In vivo activity of ACB-proinsulins was determined in fasted rats. Male, lean Sprague-Dawley rats (obtained from Charles River Laboratories, Wilmington, Mass. 01887) 190-210 g bodyweight, were fasted for 16 hours. Ten animals were chosen at random and divided into two groups of five rats each. The control group received a subcutaneous saline injection (0.1 ml per 100 g bodyweight) while the experimental groups received a saline injection containing the test peptide. Blood (0.1 ml) was obtained from the tail of each rat for glucose determination (Sigma Diagnostics, glucose [Trinder], address) before administration of the peptide and again at 30 minutes, 1, 2, 3 and 4 hours after administration of the peptide.
The mean percent change from zero time plus or minus S.E.M. in blood glucose for control and treated groups of rats were calculated and the final results expressed by adjusting the change in the experimental group for the change in the control group. The effect of 5 to 7 different doses of each peptide was routinely determined.

[2] = test system: human placental IGF-I receptor; test: Human placental IGF-I receptor binding assay (competition with 125I IGF-I); details: human placental membranes
Description: (§1) Metab., Vol.67, pgs. 194-197, the entire teaching of which is hereby incorporated by reference, except that the incubation was performed at 4° C. for 18 hours and membranes were collected on a Skatron Cell Harvester (commercially available from Skatron, Inc., Sterling, Va.). The glucose transport assay in rat adipocytes was performed in substantial accordance with the teachings of Kashwagi, M., et al., (1983) J. Clin, Invest., Vol.72, pgs. 1246-1254, the entire teaching of which is hereby incorporated by reference.

[3] = test system: human placental insulin receptor; test: Human placental insulin receptor binding assay (competition with 125I insulin); details: placental membrane insulin receptors
Description: as §1

rat adipocytes = test: Glucose transport assay in rat adipocytes; type: cell-based; details: glucose uptake by adipocytes
Description: as §1

Row | Substance | Max. hypoglycemic effect (percent) 1 hour [1] | Relative biological action to insulin 1 hour ([1]; 1 hour, subcutaneous, insulin = 100.0) | Max. hypoglycemic effect (percent) 2 hours [1] | Relative biological action to insulin 2 hours ([1]; 2 hours, subcutaneous, insulin = 100.0) | ED50 1 hour [1] | ED50 2 hours [1] | time of maximal hypoglycemic response after subcutaneous administration ([1]; s.c. administration) | ED50 IGF-I Receptor [2] | ED50 Insulin Receptor [3] | time at which blood glucose levels returned to baseline ([1]; s.c. administration) | ED50 Glucose Transport (rat adipocytes)
1 | Proinsulin: naturally occurring human (BCA) proinsulin, reference | 55.1 ± 2.6% | 14.3 ± 2.8 | 61.0 ± 4.0% | 19.5 ± 1.8 | 91. ± 1.7 nM | 8.2 ± 0.8 nM | 2 h | 10000 nM | 20.4 nM |  | 
2 | Insulin: human insulin, two-chain protein hormone, reference | 59.0 ± 4.3% |  | 45.7 ± 6.7% |  | 1.0 ± 0.01 nM | 1.6 ± 0.09 nM | 1 h |  |  | 3 to 4 h | 0.043 nM
3 | IGF-I: human IGF-I, reference ligand of the IGF-I receptor |  |  |  |  |  |  |  | 0.45 nM |  |  | 
